This is an account of results in patent publication US8586555B2, “Immunomodulatory compositions, formulations, and methods for use thereof” (Dynavax Technologies Corporation, priority 2001, dated 2013).

What all share (assay type): cell-based
Experiment [1] concerns human peripheral blood mononuclear cells (hPBMC). The experiment can be described thus: human PBMC assay, Example 4 (oligos and PLGA premixed 15 minutes). As to conditions: for IFN-α Mean / IFN-γ Mean: mean of donors 28044, 28045. As to the method: (§1) Hexameric oligonucleotides were tested for immunomodulatory activity alone and complexed with lactic acid/glycolic acid copolymer microcarrier beads using a human peripheral blood mononuclear cells (hPBMC) assay. Peripheral blood was collected from healthy volunteers by venipuncture using heparinized syringes. Blood was layered onto a FICOLL® (Amersham Pharmacia Biotech) cushion and centrifuged. hPBMCs, located at the FICOLL® interface, were collected, then washed twice with cold phosphate buffered saline (PBS). The cells were resuspended and cultured in 48 well plates at 2×10^6 cells/mL at 37° C. in RPMI 1640 with 10% heat-inactivated human AB serum plus 50 units/mL penicillin, 50 μg/mL streptomycin, 300 μg/mL glutamine, 1 mM sodium pyruvate, and 1×MEM non-essential amino acids (NEAA).
(§2) Oligonucleotides were tested as single agents, or in combination with PLGA microspheres (unmodified or cationic). All oligonucleotides contained 100% phosphorothioate linkages and were tested at 20 μg/ml. The PLGA microcarriers were used at 250 μg/ml. When oligos were tested with PLGA microcarriers, the oligo and the microcarriers were added at the same time to the culture. The cells were cultured in the in the presence of test samples for 24 hours, then cell-free medium was collected from each well and assayed for IFN-γ and IFN-α concentration. Two different oligonucleotides were used as controls: a first oligonucleotide known to have immunostimulatory activity (a 22mer oligonucleotide containing an ISS (“ISS+,” 5′-[…]-3′(SEQ ID NO:2)) and a second oligonucleotide of similar sequence but lacking immunostimulatory activity (“ISS−,” 5′-[…]-3′ (SEQ ID NO:1)). SAC (PANSORBIN® CalBiochem, 1/5000 dilution) and a untreated culture were used as additional positive and negative controls, respectively. SAC contains Staph. aureus (Cowan I) cell material. All samples were assayed in duplicate.
(§3) IFN-γ and IFN-α were assayed using CYTOSCREEN™ ELISA kits from BioSource International, Inc., according to the manufacturer's instructions.
Additional hexameric and pentameric oligonucleotides were tested for immunomodulatory activity in the PBMC assay. Oligonucleotides 6-6 (5′-TCGAGA-3′), 6-8 (5′-GTCGAC-3′), 6-9 (5′-GTCGTT-3′), 6-2 (5′-TCGTTT-3′), 6-3 (5′-TTCGTT-3′), 6-4 (5′-TTTCGT-3′), 5-1 (5′-TCGTC-3′), and 5-2 (5′-TCGTT-3′) were tested alone or in combination with cationic PLGA as described in Example 3 except that the oligos and PLGA were premixed for 15 minutes room temperature before addition to the cultures. The test articles were assayed using PBMC isolated from donors 28044 and 28045.

Experiment [2] has the same test system. The experiment can be described thus: human PBMC assay, Example 5 (96 well plates, premixed). As to conditions: for IFN-α Mean / IFN-γ Mean: mean of donors 28051-28054. The protocol:
as §1, §2, §3
(§4) The immunomodulatory activity of the oligonucleotides used in Examples 3 and 4 was confirmed with the human PBMC assay using PBMCs from an additional four donors (donors 28051-28054). Oligonucleotides were tested alone or in combination with cationic PLGA as described in Example 3, except that 96 well plates were used instead of 48 well plates and the oligonucleotides were premixed with the cationic microspheres at room temperature for 15 minutes before they were added to the culture, rather than being added simultaneously to the culture.

The test system is the same in experiment [3]. The experiment can be described thus: human PBMC assay, Example 7 (oligo 20 μg/ml, cPLGA 100 μg/ml). The conditions noted are these: for IFN-α Mean / IFN-γ Mean: mean of donors 28115-28118. As to the method: as §1, §2, §3, §4
Additional oligonucleotides, some incorporating modified bases, were tested for immunomodulatory activity in the human PBMC assay. Oligonucleotides were tested alone or in combination with cPLGA as described in Example 5. The oligonucleotides were premixed with the cationic PLGA microspheres for 15 minutes at room temperature at concentrations of 20 μg/ml and 100 μg/ml, respectively.

Experiment [4] has the same test system. The experiment can be described thus: human PBMC assay, Example 6. The protocol:
as §1, §2, §3, §4
Additional oligonucleotides were tested for immunomodulatory activity in the human PBMC assay. Oligonucleotides were tested alone or in combination with cPLGA as described in Example 5.
Additional oligonucleotides were tested using hPBMCs from volunteers 154-157 using the same assay. Results, which are shown in Table 7, confirm the activity of oligonucleotides fitting the formula 5′-X1TCGX2-3′, where the oligonucleotide is a 3-6mer, X1 is zero or one nucleotide and X2 is zero to three nucleotides.

Setting [5] is: delivered as IMO/MC complexes (cPLGA).

5′-GTCGAC-3′ [Oligonucleotide 6-8]: the IFN-α in experiment [1] (donor 28044) turned out to be 0 pg/mL; in experiment [1] (donor 28045) it was 0 pg/mL; in experiment [2] (donor 28051), 1 pg/mL; in experiment [2] (donor 28052) it was 0 pg/mL; in experiment [2] (donor 28053), 6 pg/mL; in experiment [2] (donor 28054), 0 pg/mL. The IFN-γ in experiment [1] (donor 28044) was found to be 6 pg/mL; in experiment [1] (donor 28045) it was 0 pg/mL; in experiment [2] (donor 28051), 0 pg/mL; in experiment [2] (donor 28052), 0 pg/mL; in experiment [2] (donor 28053) it was 1 pg/mL; in experiment [2] (donor 28054), 2 pg/mL. The “IFN-α Mean” value in experiment [1] was 0 pg/mL; in experiment [2], 2 pg/mL. Further, the “IFN-γ Mean” value in experiment [1] is 3 pg/mL; in experiment [2], 1 pg/mL. In addition, the “immunomodulatory activity” value in experiment [2] (delivered alone) is “inactive”; in experiment [2] (setting [5]) it was “highly active”.
With 5′-TTTCGT-3′ [Oligonucleotide 6-4], the IFN-α came out at 0 pg/mL in experiment [1] (donor 28044); 0 pg/mL in experiment [1] (donor 28045); 0 pg/mL in experiment [2] (donor 28051); 2 pg/mL in experiment [2] (donor 28052); 11 pg/mL in experiment [2] (donor 28053); 0 pg/mL in experiment [2] (donor 28054). The IFN-γ in experiment [1] (donor 28044) came to 13 pg/mL; in experiment [1] (donor 28045), 0 pg/mL; in experiment [2] (donor 28051), 3 pg/mL; in experiment [2] (donor 28052), 0 pg/mL; in experiment [2] (donor 28053), 2 pg/mL; in experiment [2] (donor 28054) it was 0 pg/mL. Moreover, the “IFN-α Mean” value is 0 pg/mL in experiment [1] and 3 pg/mL in experiment [2]. Moreover, the entries for the “IFN-γ Mean” value in experiment [1] and in experiment [2] were 6 pg/mL and 1 pg/mL, respectively. For the same substance, the “immunomodulatory activity” value in experiment [2] (setting [5]) is reported as “variable activity”.
Take 5′-TTCGTT-3′ [Oligonucleotide 6-3]: the IFN-α amounted to 0 pg/mL in experiment [1] (donor 28044); 0 pg/mL in experiment [1] (donor 28045); 0 pg/mL in experiment [2] (donor 28051); 5 pg/mL in experiment [2] (donor 28052); 5 pg/mL in experiment [2] (donor 28053); 0 pg/mL in experiment [2] (donor 28054). Besides, the IFN-γ in experiment [1] (donor 28044) came to 6 pg/mL; in experiment [1] (donor 28045) it was 0 pg/mL; in experiment [2] (donor 28051), 1 pg/mL; in experiment [2] (donor 28052), 0 pg/mL; in experiment [2] (donor 28053), 5 pg/mL; in experiment [2] (donor 28054), 0 pg/mL. Also, the “IFN-α Mean” value in experiment [1] amounted to 0 pg/mL; in experiment [2], 3 pg/mL. Also, the “IFN-γ Mean” value was found to be 3 pg/mL in experiment [1] and 2 pg/mL in experiment [2]. The “immunomodulatory activity” value in experiment [2] (delivered alone) is “inactive”; in experiment [2] (setting [5]), “highly active”.
Consider “5′-TCCTTT-3′ [Oligonucleotide 6-20, reference compound]”, for which the IFN-α in experiment [3] (donor 28115), in experiment [3] (donor 28116), in experiment [3] (donor 28117), in experiment [3] (donor 28118), in experiment [4] (volunteer 154) and in experiment [4] (volunteer 155) was 0 pg/mL throughout. For the same substance, the IFN-α in experiment [4] (volunteer 156) and in experiment [4] (volunteer 157) was 0 pg/mL each time. The IFN-γ in experiment [3] (donor 28115) amounted to 6 pg/mL; in experiment [3] (donor 28116), 3 pg/mL; in experiment [3] (donor 28117) it was 9 pg/mL; in experiment [3] (donor 28118) it was 0 pg/mL; in experiment [4] (volunteer 154), 0 pg/mL; in experiment [4] (volunteer 155), 0 pg/mL. Also, the IFN-γ stood at 13 pg/mL in experiment [4] (volunteer 156) and 0 pg/mL in experiment [4] (volunteer 157). The “IFN-α Mean” value in experiment [3] and in experiment [4] (mean of volunteers 154-157) was 0 pg/mL each time. In addition, the “IFN-γ Mean” value was 5 pg/mL in experiment [3] and 3 pg/mL in experiment [4] (mean of volunteers 154-157).
With 5′-TTCGT-3′ [Oligonucleotide 5-3], the “immunomodulatory activity” value in experiment [3] (combined with cPLGA) is “active in two of four donors”. Also, the IFN-α in experiment [3] (donor 28115) is 10 pg/mL; in experiment [3] (donor 28116), 0 pg/mL; in experiment [3] (donor 28117), 0 pg/mL; in experiment [3] (donor 28118), 0 pg/mL. The IFN-γ in experiment [3] (donor 28115) was found to be 26 pg/mL; in experiment [3] (donor 28116), 4 pg/mL; in experiment [3] (donor 28117), 17 pg/mL; in experiment [3] (donor 28118) it was 0 pg/mL. Further, the “IFN-α Mean” value in experiment [3] worked out at 3 pg/mL. The “IFN-γ Mean” value in experiment [3] was determined as 12 pg/mL.
5′-GTCGTT-3′ [Oligonucleotide 6-9]: the IFN-α in experiment [1] (donor 28044) came to 0 pg/mL; in experiment [1] (donor 28045), 0 pg/mL; in experiment [2] (donor 28051), 0 pg/mL; in experiment [2] (donor 28052), 0 pg/mL; in experiment [2] (donor 28053) it was 6 pg/mL; in experiment [2] (donor 28054) it was 0 pg/mL. In addition, the IFN-γ worked out at 6 pg/mL in experiment [1] (donor 28044); 0 pg/mL in experiment [1] (donor 28045); 1 pg/mL in experiment [2] (donor 28051); 0 pg/mL in experiment [2] (donor 28052); 2 pg/mL in experiment [2] (donor 28053); 1 pg/mL in experiment [2] (donor 28054). The “IFN-α Mean” value in experiment [1] stood at 0 pg/mL; in experiment [2], 2 pg/mL. In addition, the “IFN-γ Mean” value in experiment [1] stood at 3 pg/mL; in experiment [2] it was 1 pg/mL. Also, the “immunomodulatory activity” value in experiment [2] (delivered alone) was “inactive”; in experiment [2] (setting [5]), “highly active”.
In the case of 5′-TCGAGA-3′ [Oligonucleotide 6-6], the IFN-α in experiment [1] (donor 28044) was 0 pg/mL; in experiment [1] (donor 28045) it was 0 pg/mL; in experiment [2] (donor 28051) it was 1 pg/mL; in experiment [2] (donor 28052), 4 pg/mL; in experiment [2] (donor 28053) it was 0 pg/mL; in experiment [2] (donor 28054), 10 pg/mL. In addition, the IFN-γ in experiment [1] (donor 28044) worked out at 0 pg/mL; in experiment [1] (donor 28045), 0 pg/mL; in experiment [2] (donor 28051), 2 pg/mL; in experiment [2] (donor 28052), 2 pg/mL; in experiment [2] (donor 28053) it was 1 pg/mL; in experiment [2] (donor 28054), 2 pg/mL. Besides, the “IFN-α Mean” value was determined as 0 pg/mL in experiment [1] and 4 pg/mL in experiment [2]. Further, the entries for the “IFN-γ Mean” value in experiment [1] and in experiment [2] were 0 pg/mL and 2 pg/mL, respectively. Further, the “immunomodulatory activity” value in experiment [2] (delivered alone) was “inactive”; in experiment [2] (setting [5]) it was “highly active”.
Regarding 5′-TCGTC-3′ [Oligonucleotide 5-1], the IFN-α turned out to be 0 pg/mL in experiment [1] (donor 28044); 0 pg/mL in experiment [1] (donor 28045); 0 pg/mL in experiment [2] (donor 28051); 3 pg/mL in experiment [2] (donor 28052); 1 pg/mL in experiment [2] (donor 28053); 1 pg/mL in experiment [2] (donor 28054). The IFN-γ in experiment [1] (donor 28044) was determined as 6 pg/mL; in experiment [1] (donor 28045), 7 pg/mL; in experiment [2] (donor 28051), 1 pg/mL; in experiment [2] (donor 28052) it was 0 pg/mL; in experiment [2] (donor 28053), 1 pg/mL; in experiment [2] (donor 28054), 0 pg/mL. Moreover, the “IFN-α Mean” value amounted to 0 pg/mL in experiment [1] and 1 pg/mL in experiment [2]. Moreover, the entries for the “IFN-γ Mean” value in experiment [1] and in experiment [2] were 6 pg/mL and 1 pg/mL, respectively. Also, the “immunomodulatory activity” value was “inactive” in experiment [2] (delivered alone) and “highly active” in experiment [2] (setting [5]).
